Patent US10111435B2, “Herbicidal compositions containing N-(1,3,4-oxadiazol-2-yl)-aryl carboxylic acid amides” (BAYER CROPSCIENCE AKTIENGESELLSCHAFT, priority 2013, dated 2018)

Assays:
Type in all cases: in vivo
Galium aparine (GALAP) = assay: greenhouse post-emergence herbicidal efficacy against GALAP
Description: (§1) All trials whose results are shown were conducted in a greenhouse by the methodology specified below. The effect of the inventive herbicidal compositions was examined on the following harmful plants 14 and 21 days after application:
(§2) Echinochloa crus-galli (ECHCG), Eleusine indica (ELEIN), Setaria viridis (SETVI), Amaranthus retroflexus (AMARE), Chenopodium album (CHEAL), Kochia scoparia (KCHSC), Solanum nigrum (SOLNI), Avena fatua (AVEFA), Bromus sterilis (BROST), Lolium multiflorum (LOLMU), Phalaris minor (PHAMI), Poa annua (POAAN), Galium aparine (GALAP), Matricaria inodora (MATIN) and Polygonum convolvulus (POLCO).
(§3) The harmful plant seeds were sown in pots (diameter 8 cm) with sandy loam soil and germinated under optimal conditions. The inventive herbicidal compositions or the active ingredients alone were applied post-emergence to the planted pots with a spray volume of 300 L/ha. The trial was conducted in a greenhouse under optimum growth conditions. The herbicidal effects were assessed visually by comparison of untreated and treated plants. The percentages mean: 0%=no effects, 100%=the plants die off completely).
(§4) The abbreviations mean: • a.i.=active ingredient • E^C=expected value according to Colby (E^C=A+B−A×B/100) • Diff: =difference (%) of measured value from expected value (%) (measured value minus expected value)
(§5) Assessment: • measured value E is greater than E^C:->synergism (+ diff.) • measured value E equals E^C:->additive effect • measured value E is smaller than E^C:->antagonism(− diff.)

[1] = tested on: Polygonum convolvulus (POLCO); assay: greenhouse post-emergence herbicidal efficacy against POLCO
Description: as §1, §2, §3, §4, §5

Bromus sterilis (BROST) = assay: greenhouse post-emergence herbicidal efficacy against BROST
Description: as §1, §2, §3, §4, §5

Poa annua (POAAN) = assay: greenhouse post-emergence herbicidal efficacy against POAAN
Description: as §1, §2, §3, §4, §5

Phalaris minor (PHAMI) = assay: greenhouse post-emergence herbicidal efficacy against PHAMI
Description: as §1, §2, §3, §4, §5

[2] = tested on: Lolium multiflorum (LOLMU); assay: greenhouse post-emergence herbicidal efficacy against LOLMU
Description: as §1, §2, §3, §4, §5

[3] = tested on: Matricaria inodora (MATIN); assay: greenhouse post-emergence herbicidal efficacy against MATIN
Description: as §1, §2, §3, §4, §5

Avena fatua (AVEFA) = assay: greenhouse post-emergence herbicidal efficacy against AVEFA
Description: as §1, §2, §3, §4, §5

Eleusine indica (ELEIN) = assay: greenhouse post-emergence herbicidal efficacy against ELEIN; conditions: Eleusine indica, post-emergence, 504 h, read-out: Efficacy
Description: as §1, §2
as §3, with “completely). The percentages are used to calculate interactions between individual treatments and combination treatments according to S. R. Colby, Weeds 15, pages 20 to 22 (1967).” for “completely).”
as §4, §5

Kochia scoparia (KCHSC) = assay: greenhouse post-emergence herbicidal efficacy against KCHSC
Description: as §1, §2
as §3, with “completely). The percentages are used to calculate interactions between individual treatments and combination treatments according to S. R. Colby, Weeds 15, pages 20 to 22 (1967).” for “completely).”
as §4, §5

[4] = tested on: Chenopodium album (CHEAL); assay: greenhouse post-emergence herbicidal efficacy against CHEAL; conditions: 21 days after application; 50 g of a.i./ha
Description: as §1, §2
as §3, with “completely). The percentages are used to calculate interactions between individual treatments and combination treatments according to S. R. Colby, Weeds 15, pages 20 to 22 (1967).” for “completely).”
as §4, §5

[5] = 14 days after application, g of a.i./ha: A1-57 12.5, aclonifen 200
[6] = 14 days after application, g of a.i./ha: A1-57 50, aclonifen 200
[7] = 21 days after application, g of a.i./ha: A1-57 50, aclonifen 800
[8] = 14 days after application, g of a.i./ha: A1-57 12.5, aclonifen 800
[9] = 21 days after application, g of a.i./ha: A1-57 12.5, aclonifen 200
[10] = 14 days after application, g of a.i./ha: A1-57 50, aclonifen 800
[11] = 21 days after application, g of a.i./ha: A1-57 12.5, aclonifen 800
[12] = 14 days after application, 2.5 g of a.i./ha
[13] = 14 days after application, 10 g of a.i./ha
[14] = 21 days after application, g of a.i./ha: A1-13 2.5, mesosulfuron-methyl 10
[15] = 21 days after application, g of a.i./ha: A1-13 10, mesosulfuron-methyl 10
[16] = 21 days after application, g of a.i./ha: A1-13 2.5, mesosulfuron-methyl 2.5
[17] = 14 days after application, 0.5 g of a.i./ha
[18] = 21 days after application, g of a.i./ha: A1-34 50, iodosulfuron-methyl-sodium 0.5
[19] = 21 days after application, g of a.i./ha: A1-34 200, iodosulfuron-methyl-sodium 2
[20] = 14 days after application, 2 g of a.i./ha
[21] = 21 days after application, g of a.i./ha: A1-34 50, iodosulfuron-methyl-sodium 2

## Nc1c([N+](=O)[O-])ccc(Oc2ccccc2)c1Cl [aclonifen]
Galium aparine (GALAP); [5]
  Efficacy: 20%
Galium aparine (GALAP); [6]
  Efficacy: 20%
Galium aparine (GALAP); [7]
  Efficacy: 20%
[1]; [5]
  Efficacy: 0%
[1]; [8]
  Efficacy: 10%
[1]; [9]
  Efficacy: 0%
Bromus sterilis (BROST); [5]
  Efficacy: 0%
Bromus sterilis (BROST); [8]
  Efficacy: 0%
Bromus sterilis (BROST); [10]
  Efficacy: 0%
Bromus sterilis (BROST); [11]
  Efficacy: 0%
Bromus sterilis (BROST); [7]
  Efficacy: 0%
Poa annua (POAAN); [5]
  Efficacy: 0%
Poa annua (POAAN); [8]
  Efficacy: 30%
Poa annua (POAAN); [6]
  Efficacy: 0%
Poa annua (POAAN); [10]
  Efficacy: 30%
Poa annua (POAAN); [11]
  Efficacy: 10%
Poa annua (POAAN); 21 days after application, g of a.i./ha: A1-57 50, aclonifen 200
  Efficacy: 0%
Poa annua (POAAN); [7]
  Efficacy: 10%
Phalaris minor (PHAMI); [5]
  Efficacy: 0%
Phalaris minor (PHAMI); [8]
  Efficacy: 40%
Phalaris minor (PHAMI); [6]
  Efficacy: 0%
Phalaris minor (PHAMI); [9]
  Efficacy: 0%
Phalaris minor (PHAMI); [11]
  Efficacy: 15%
[2]; [8]
  Efficacy: 0%
[2]; [10]
  Efficacy: 0%
[3]; [5]
  Efficacy: 0%
[3]; [8]
  Efficacy: 0%
[3]; [10]
  Efficacy: 0%
[3]; [7]
  Efficacy: 0%
Avena fatua (AVEFA); 14 days after application, 200 g of a.i./ha
  Efficacy: 0%
Avena fatua (AVEFA); 14 days after application, 800 g of a.i./ha
  Efficacy: 0%
Avena fatua (AVEFA); [5]
  Efficacy: 0%
Avena fatua (AVEFA); [11]
  Efficacy: 0%

## O=C(O)CNCP(=O)(O)O [glyphosate]
Eleusine indica (ELEIN)
  pest or weed control at 50 g/ha: 0%
Kochia scoparia (KCHSC); 14 days after application, 50 g of a.i./ha
  Efficacy: 30%
Kochia scoparia (KCHSC); 21 days after application, 50 g of a.i./ha
  Efficacy: 10%
Kochia scoparia (KCHSC); 21 days after application, 200 g of a.i./ha
  Efficacy: 30%
[4]
  Efficacy: 30%

## COC(=O)c1ccc(CNS(C)(=O)=O)cc1S(=O)(=O)NC(=O)Nc1nc(OC)cc(OC)n1 [mesosulfuron-methyl]
Galium aparine (GALAP); [12]
  Efficacy: 30%
Galium aparine (GALAP); [13]
  Efficacy: 30%
[1]; [14]
  Efficacy: 0%
[1]; [15]
  Efficacy: 0%
Bromus sterilis (BROST); [16]
  Efficacy: 0%
Bromus sterilis (BROST); [14]
  Efficacy: 0%
Bromus sterilis (BROST); [15]
  Efficacy: 0%
Poa annua (POAAN); [12]
  Efficacy: 15%
Poa annua (POAAN); [13]
  Efficacy: 40%
Poa annua (POAAN); [14]
  Efficacy: 40%
Phalaris minor (PHAMI); [12]
  Efficacy: 0%
Phalaris minor (PHAMI); [13]
  Efficacy: 5%
Phalaris minor (PHAMI); [16]
  Efficacy: 0%
Phalaris minor (PHAMI); [14]
  Efficacy: 5%
Phalaris minor (PHAMI); [15]
  Efficacy: 5%
[2]; [15]
  Efficacy: 15%
[3]; [12]
  Efficacy: 0%
[3]; [13]
  Efficacy: 0%
Avena fatua (AVEFA); [13]
  Efficacy: 5%
Avena fatua (AVEFA); [14]
  Efficacy: 0%
Avena fatua (AVEFA); [15]
  Efficacy: 0%

## COC(=O)c1ccc(I)cc1S(=O)(=O)[N-]C(=O)Nc1nc(C)nc(OC)n1.[Na+] [iodosulfuron-methyl-sodium]
Galium aparine (GALAP); [17]
  Efficacy: 30%
Galium aparine (GALAP); [18]
  Efficacy: 0%
Galium aparine (GALAP); [19]
  Efficacy: 25%
[1]; [17]
  Efficacy: 15%
[1]; [20]
  Efficacy: 30%
[1]; [18]
  Efficacy: 0%
[1]; [21]
  Efficacy: 0%
Bromus sterilis (BROST); [20]
  Efficacy: 15%
Bromus sterilis (BROST); [21]
  Efficacy: 0%
Bromus sterilis (BROST); [19]
  Efficacy: 0%
Poa annua (POAAN); [17]
  Efficacy: 0%
Poa annua (POAAN); [20]
  Efficacy: 20%
Phalaris minor (PHAMI); [17]
  Efficacy: 10%
[2]; [17]
  Efficacy: 0%
[2]; [20]
  Efficacy: 30%
[3]; [18]
  Efficacy: 70%
Avena fatua (AVEFA); [19]
  Efficacy: 5%
